Test results taken from patent publication US8021570B2, “β-peptide lyotropic liquid crystals and methods of manufacture and use thereof” (Wisconsin Alumni Research Foundation, priority 2006, dated 2011).
Each block holds one compound with its values, some of them ahead of it.

What was measured:
[1] = target: T1, streptavidin (Streptomyces avidinii, UniProt P22629); assay: Stability of streptavidin immobilized on gold slides after exposure to a liquid crystal (binding of fluorescently labeled biotin); details: 2 hrs incubation
T1 construct: purchased Pierce Biotechnology

[2] = Optical microscopy of aqueous β-peptide solutions between crossed polarizing filters (birefringence = LC phase formation); assay type: physicochemical; details: aqueous solution
Text: The inventors used optical microscopy for initial evaluation of aqueous solutions of 1-5. For each β-peptide, aqueous solutions of varying concentration were drawn into microcapillaries and examined between crossed polarizing filters at room temperature (FIGS. 1 and 3). In such experiments, the observation of birefringence is taken as evidence of LC phase formation. […] Increasing β-peptide length by one triad, to generate 3, led to LC behavior at lower concentrations, as shown by the image obtained for a 10 wt % sample (61 mM, FIG. 1C). […] Thus, self-assembly of the chiral helix formed by 3 induced a helical ordering of molecules in the LC phase whereas the two-turn, chiral helix formed by 2 was unable to induce this higher ordered phase.
β-Peptides were weighed into glass vials, diluted to the desired concentration with water, and left on an oscillatory shaker overnight to ensure dissolution. β-peptide solutions were then drawn into a 2 μL microcapillary (Drummond), and the ends were sealed with a high viscosity vacuum grease (Dow-Corning) Microcapillaries were placed on a glass slide and imaged on an Olympus BX-60 microscope (Tokyo, Japan) in transmission mode between crossed polarizing filters using a digital camera (Olympus C2020 Zoom). […] Temperature was recorded from a thermostat but was not further calibrated.
Materials and Methods • Materials. […] Solvent A and Solvent B for RP-HPLC were 0.1% trifluoroacetic acid (TFA) in Millipore water and 0.1% TFA in acetonitrile, respectively. β-peptide purity was assessed using a Vydac C18 analytical column using a flow rate of 1 mL/min from 10-60% B over 50 minutes monitoring at 220 and 273 nm. • MALDI-TOF-MS (matrix-assisted laser desorption-ionization-time-of-flight mass spectrometry) data were collected on a Bruker REFLEX II spectrometer with a 337 nm laser using α-cyano-4-hydroxycinnamic acid as matrix. […] To assess the upper limit of concentration, a 1 μL droplet of a concentrated peptide solution was allowed to slowly evaporate while being monitored for birefringence. […]

Compound: pentanoyl-NH-β^3hTyr-(ACHC-ACHC-β^3hLys)3 [pentanoyl-β^3hTyr-(ACHC-ACHC-β^3hLys)3]
state of immobilized streptavidin after incubation with the liquid crystal ([1]; 1 wt %): streptavidin is still able to bind biotin

Compound: CCCCCCCCCCOS(=O)(=O)[O-].[Na+] [sodium decyl sulfate]
state of immobilized streptavidin after incubation with the liquid crystal ([1]; 32 wt %): the protein is denatured

Compound: O=C([O-])c1cc(=O)c2c(OCC(O)COc3cccc4oc(C(=O)[O-])cc(=O)c34)cccc2o1.[Na+].[Na+] [disodium chromoglycate]
state of immobilized streptavidin after incubation with the liquid crystal ([1]; 16 wt %): streptavidin is still able to bind biotin

Results, then the compound that gave them:

type of LC phase suggested by optical texture ([2]; room temperature, 2 at 19 wt %, 3 at 10 wt %): nematic
Compound: β^3-hTyr-(ACHC-ACHC-β^3-hLys)2 [β-peptide 2]

solubility limit [2]: > 10 wt %
Compound: NCCCC[C@@H](CC(N)=O)NC(=O)C[C@H](Cc1ccccc1)NC(=O)[C@H]1CCCC[C@@H]1NC(=O)C[C@H](CCCCN)NC(=O)C[C@H](Cc1ccccc1)NC(=O)[C@H]1CCCC[C@@H]1NC(=O)C[C@H](CCCCN)NC(=O)C[C@H](Cc1ccccc1)NC(=O)[C@H]1CCCC[C@@H]1NC(=O)C[C@@H](N)Cc1ccc(O)cc1 [β-peptide iso-A]

LC phase formation / birefringence (result in words) [2]: strong birefringence
Compound: β^3-hTyr-(ACHC-β^3-hPhe-β^3-hLys)3 scram
